According to patent publication US9227923B2, “Pesticidal carboxamides” (Bayer Intellectual Property GmbH, priority 2009, dated 2016):

Tests used:
Format in all cases: in vivo
[1] = test system: Two-Spotted Spider Mite (Tetranychus Urticae); assay: Test against two-spotted spider mite (Tetranychus urticae), spray; settings: active compound concentration of 100 ppm; adult mites; after 7 days
Description: (§1) Solvent: 3 parts by weight of dimethylformamide
(§2) Emulsifier: 1 part by weight of polyoxyethylene alkyl phenyl ether

[2] = test system: Tobacco Cutworm (Spodoptera litura) Larvae; assay: Test against tobacco cutworm (Spodoptera litura) larvae, leaf dip; settings: active compound concentration of 100 ppm, third instar larvae, after 7 days
Method: as §1, §2
Leaves of sweet potato were immersed in the test solution at the appropriate concentration, and the leaves were dried in air. The leaves were then placed in a petri dish having a diameter of 9 cm, and ten Spodoptera litura at third instar larvae were released therein. The petri dishes were placed in a temperature-controlled chamber at 25° C. After 2 days and 4 days more sweet potato leaves were added. After 7 days, the number of dead larvae was counted to calculate the insecticidal activity. An insecticidal activity of 100% means that all larvae were killed, whereas an insecticidal activity of 0% means that no larva was killed.

[3] = test system: Cucurbit Leaf Beetle (Aulacophora Femoralis); assay: Test against cucurbit leaf beetle (Aulacophora femoralis), leaf dip; settings: active compound concentration of 100 ppm, second instar larvae, after 7 days
Method: as §1, §2
Leaves of cucumber were immersed in the test solution at the appropriate concentration, and the leaves were dried in air. The leaves were then put in a plastic cup containing sterilized black soil and five Aulacophora femoralis at second instar larvae were released in the cup. The cups were placed in a temperature-controlled chamber at 25° C. After 7 days, the number of dead larvae was counted, and thus the insecticidal activity was calculated. An insecticidal activity of 100% means that all larvae were killed, whereas an insecticidal activity of 0% means that no larva was killed.

| SMILES | acaricidal activity [1] [%] | insecticidal activity [2] [%] | insecticidal activity [3] [%] | pest or weed control at 100 ppm ([2]; Spodoptera litura, foliar, 168 h, read-out: insecticidal activity) [%] | pest or weed control at 100 ppm ([3]; Aulacophora, foliar, 168 h, read-out: insecticidal activity) [%] |
| --- | --- | --- | --- | --- | --- |
| CCC(=O)N(C)Cc1ccc(C(=O)Nc2c(C)cc(C(F)(C(F)(F)F)C(F)(F)F)cc2CC)cc1 [Compound 5-186] | 100 | – | – | – | – |
| CCc1cc(C(F)(C(F)(F)F)C(F)(F)C(F)(F)F)cc(C)c1NC(=O)c1ccc(CNC(=O)CC2CC2)c(Cl)c1 (stereo not shown) [Compound 5-153] | 100 | 100 | – | – | – |
| CCc1cc(C(F)(C(F)(F)F)C(F)(F)F)cc(C)c1NC(=O)c1ccc(CNC(=O)CC(F)(F)F)c(C(F)(F)F)c1 [Compound 5-110] | 100 | 100 | – | – | – |
| Cc1cc(C(F)(C(F)(F)F)C(F)(F)F)cc(OC(F)F)c1NC(=O)c1ccc(CNC(=O)CC2CC2)c(Cl)c1 [Compound 5-340] | 100 | 100 | – | – | – |
| CCc1cc(C(F)(C(F)(F)F)C(F)(F)F)cc(C)c1NC(=O)c1ccc(CNC(=O)c2cccnc2Cl)c(Br)c1 [Compound 5-94] | 100 | 100 | – | – | – |
| CCC(=O)NC1CCc2cc(C(=O)Nc3c(C)cc(C(F)(C(F)(F)F)C(F)(F)C(F)(F)F)cc3CC)ccc21 (stereo not shown) [Compound 10-10] | 100 | 100 | – | – | – |
| CCC(=O)NCc1ccc(C(=O)Nc2c(C)cc(C(F)(C(F)(F)F)C(F)(F)F)cc2CC)cc1 [Compound 5-29] | 100 | 100 | – | – | – |
| CC(=O)NCc1ccc(C(=O)Nc2c(C)cc(C(F)(C(F)(F)F)C(F)(F)F)cc2Cl)cc1 [Compound 5-333] | 100 | – | – | – | – |
| CCc1cc(C(F)(C(F)(F)F)C(F)(F)F)cc(C)c1NC(=O)c1ccc(CNC(=O)CC2CC2)c(Cl)c1 [Compound 5-80] | 100 | 100 | – | – | – |
| CCc1cc(C(F)(C(F)(F)F)C(F)(F)F)cc(C)c1NC(=O)c1ccc(CNC(=O)CC2CC2)c(Br)c1 [Compound 5-88] | 100 | 100 | – | – | – |
| CCc1cc(C(F)(C(F)(F)F)C(F)(F)F)cc(C)c1NC(=O)c1ccc(CNC(=O)c2ccc(F)cc2)c(Br)c1 [Compound 5-92] | 100 | – | – | – | – |
| CCc1cc(C(F)(C(F)(F)F)C(F)(F)F)cc(C)c1NC(=O)c1ccc(CNC(=O)c2cccnc2F)c(C(F)(F)F)c1 [Compound 5-112] | 100 | 100 | – | – | – |
| CCc1cc(C(F)(C(F)(F)F)C(F)(F)C(F)(F)F)cc(C)c1NC(=O)c1ccc(CNC(=O)CC2CC2)c(F)c1F (stereo not shown) [Compound 5-204] | – | 100 | 100 | – | – |
| Cc1cc(C(F)(C(F)(F)F)C(F)(F)F)cc(C)c1NC(=O)c1ccc(CNC(=O)CC2CC2)cc1 [Compound 5-8] | – | 100 | 100 | – | – |
| CCc1cc(C(F)(C(F)(F)F)C(F)(F)F)cc(C)c1NC(=O)c1ccc(CNS(C)(=O)=O)c(Br)c1 [Compound 5-96] | – | 100 | 100 | – | – |
| CCC(=O)NCc1ccc(C(=O)Nc2c(C)cc(C(F)(C(F)(F)F)C(F)(F)F)cc2CC)c(F)c1 [Compound 5-45] | – | 100 | 100 | – | – |
| CCc1cc(C(F)(C(F)(F)F)C(F)(F)F)cc(C)c1NC(=O)c1ccc(CN(C)C(=O)CC(F)(F)F)cc1 [Compound 5-188] | 100 | 100 | – | – | – |
| CCc1cc(C(F)(C(F)(F)F)C(F)(F)C(F)(F)F)cc(C)c1NC(=O)c1ccc(CNC(=O)CC(F)(F)F)c(I)c1 (stereo not shown) [Compound 5-198] | – | 100 | 100 | – | – |
| CCc1cc(C(F)(C(F)(F)F)C(F)(F)F)cc(C)c1NC(=O)c1ccc(CNC(=O)c2cccnc2F)c2ccccc12 [Compound 6-7] | – | 100 | 100 | – | – |
| CCc1cc(C(F)(C(F)(F)F)C(F)(F)F)cc(C)c1NC(=O)c1ccc(CN(C)C(=O)CC2CC2)cc1 [Compound 5-187] | 100 | – | – | – | – |
| N#Cc1ccc(C(=O)Nc2c(Cl)cc(C(F)(C(F)(F)F)C(F)(F)C(F)(F)F)cc2Cl)cc1 (stereo not shown) [Compound I-27] | – | 100 | 100 | – | – |
| CCC(=O)NCc1ccc(C(=O)Nc2c(C)cc(C(F)(C(F)(F)F)C(F)(F)C(F)(F)F)cc2CC)c(F)c1F (stereo not shown) [Compound 5-202] | – | 100 | 100 | – | – |
| CCc1cc(C(F)(C(F)(F)F)C(F)(F)F)cc(C)c1NC(=O)c1ccc(CNC(=O)CC(F)(F)F)cc1 [Compound 5-32] | 100 | 100 | – | – | – |

| SMILES | acaricidal activity [1] [%] | insecticidal activity [2] [%] | insecticidal activity [3] [%] | pest or weed control at 100 ppm ([2]; Spodoptera litura, foliar, 168 h, read-out: insecticidal activity) [%] | pest or weed control at 100 ppm ([3]; Aulacophora, foliar, 168 h, read-out: insecticidal activity) [%] |
| --- | --- | --- | --- | --- | --- |
| CCc1cc(C(F)(C(F)(F)F)C(F)(F)C(F)(F)F)cc(C)c1NC(=O)c1ccc(CNC(=O)C2CC2)c(F)c1F (stereo not shown) [Compound 5-203] | – | 100 | 100 | – | – |
| CCc1cc(C(F)(C(F)(F)F)C(F)(F)F)cc(C)c1NC(=O)c1ccc(CNC(=O)CSC)cc1 [Compound 5-33] | 100 | – | – | – | – |
| CCc1cc(C(F)(C(F)(F)F)C(F)(F)F)cc(C)c1NC(=O)c1ccc(-n2cncn2)nc1 [Compound 4-2] | – | 100 | 100 | – | – |
| CCc1cc(C(F)(C(F)(F)F)C(F)(F)F)cc(C)c1NC(=O)c1ccc(CNC(=O)c2cccc(F)c2)cc1 [Compound 5-35] | – | 100 | 100 | – | – |
| CCc1cc(C(F)(C(F)(F)F)C(F)(F)C(F)(F)F)cc(C)c1NC(=O)c1ccc(CNC(=O)CC(F)(F)F)c(Br)c1 (stereo not shown) [Compound 5-161] | – | 100 | 100 | – | – |
| CCC(=O)NCc1cc(F)c(C(=O)Nc2c(C)cc(C(F)(C(F)(F)F)C(F)(F)F)cc2CC)cc1F [Compound 5-59] | – | 100 | 100 | – | – |
| O=C(CC(F)(F)F)NCc1ccc(C(=O)Nc2c(Cl)cc(C(F)(C(F)(F)F)C(F)(F)C(F)(F)F)cc2Cl)cc1 (stereo not shown) [Compound 5-324] | – | 100 | 100 | – | – |
| CCc1cc(C(F)(C(F)(F)F)C(F)(F)F)cc(C)c1NC(=O)c1ccc(CNC(=O)CC2CC2)cc1F [Compound 5-46] | – | 100 | 100 | – | – |
| CCC(=O)NCc1ccc(C(=O)Nc2c(C)cc(C(F)(C(F)(F)F)C(F)(F)F)cc2CC)nc1 [Compound 7-3] | – | 100 | 100 | – | – |
| CC(=O)NCc1ccc(C(=O)Nc2c(C)cc(C(F)(C(F)(F)F)C(F)(F)F)cc2C)c(F)c1 [Compound 5-21] | – | 100 | 100 | – | – |
| CCc1cc(C(F)(C(F)(F)F)C(F)(F)F)cc(C)c1NC(=O)c1ccc(CNC(=O)CS(C)(=O)=O)c(Br)c1 [Compound 5-178] | – | 100 | 100 | – | – |
| CCc1cc(C(F)(C(F)(F)F)C(F)(F)F)cc(C)c1NC(=O)c1ccc(CNC(C)=O)cn1 [Compound 7-2] | – | 100 | 100 | – | – |
| CCc1cc(C(F)(C(F)(F)F)C(F)(F)F)cc(C)c1NC(=O)c1ccc2c(c1)CCC2NC(=O)CSC (stereo not shown) [Compound 10-22] | – | 100 | 100 | – | – |
| CCc1cc(C(F)(C(F)(F)F)C(F)(F)C(F)(F)F)cc(C)c1NC(=O)c1ccc(CNC(=O)C2CC2)c(Cl)c1 (stereo not shown) [Compound 5-152] | – | 100 | 100 | – | – |
| CCc1cc(C(F)(C(F)(F)F)C(F)(F)C(F)(F)F)cc(C)c1NC(=O)c1ccc(CNC(C)=O)c(F)c1F (stereo not shown) [Compound 5-201] | – | 100 | 100 | – | – |
| CC(=O)NCc1ccc(C(=O)Nc2c(Cl)cc(C(F)(C(F)(F)F)C(F)(F)F)cc2Cl)cc1Cl [Compound 5-229, 4-(acetamidemethyl)-3-chloro-N-[2,6-dichloro-4-(1,1,1,2,3,3,3-heptafluoropropan-2-yl)phenyl]benzamide] | – | – | – | 100 | 100 |
| CCC(=O)NCc1ccc(C(=O)Nc2c(Cl)cc(C(F)(C(F)(F)F)C(F)(F)C(F)(F)F)cc2Cl)cc1 (stereo not shown) [Compound 5-323] | – | 100 | 100 | – | – |
| CCc1cc(C(F)(C(F)(F)F)C(F)(F)F)cc(C)c1NC(=O)c1ccc(CNC(C)=O)c(F)c1F [Compound 5-51] | – | 100 | 100 | – | – |
| CCc1cc(C(F)(C(F)(F)F)C(F)(F)F)cc(C)c1NC(=O)c1ccc(C(C)NC(=O)CC(F)(F)F)cc1 (stereo not shown) [Compound 9-6] | – | 100 | 100 | – | – |
| CCc1cc(C(F)(C(F)(F)F)C(F)(F)F)cc(C)c1NC(=O)c1ccc(CNC(C)=O)nc1 [Compound 8-2] | – | 100 | 100 | – | – |
| CCc1cc(C(F)(C(F)(F)F)C(F)(F)C(F)(F)F)cc(C)c1NC(=O)c1ccc(CNC(=O)CC(F)(F)F)c(F)c1F (stereo not shown) [Compound 5-205] | – | 100 | 100 | – | – |
| CCc1cc(C(F)(C(F)(F)F)C(F)(F)F)cc(C)c1NC(=O)c1ccc(CNC(=O)CC(F)(F)F)c2ccccc12 [Compound 6-6] | – | 100 | 100 | – | – |
